Literature values as cited in patent US7276608B2, “Tetrahydroquinoline derivatives as cannabinoid receptor modulators” (Bristol-Myers Squibb Company, priority 2003, dated 2007).

Legend:
[1] = 16 week trial period, Phase IIb
[2] = chronic administration for two weeks

| Compound | body weight in human subjects [1] | body weight [2] |
| --- | --- | --- |
| Cc1c(C(=O)NN2CCCCC2)nn(-c2ccc(Cl)cc2Cl)c1-c1ccc(Cl)cc1 [SR-141716] | dose-dependently reduced body weight |  |
| Cc1c(C(=O)NN2CCCCC2)nn(-c2ccc(Cl)cc2Cl)c1-c1ccc(I)cc1 [AM-251] |  | substantial body weight reduction |
